Experimental data published in ChEMBL document CHEMBL5291721, “A preclinical secondary pharmacology resource illuminates target-adverse drug reaction associations of marketed drugs” (Nat Commun, 2023).

Legend:
[1] = biological target: T1, Prostaglandin G/H synthase 1 (Homo sapiens, UniProt P23219); type: functional
Acetylcholinesterase = Acetylcholinesterase (Homo sapiens, UniProt P22303); type: functional
Thromboxane A2 receptor [2] = biological target: T2, Thromboxane A2 receptor (Homo sapiens, UniProt P21731); type: functional, cell-based
T2 sequence (P21731 whole entry): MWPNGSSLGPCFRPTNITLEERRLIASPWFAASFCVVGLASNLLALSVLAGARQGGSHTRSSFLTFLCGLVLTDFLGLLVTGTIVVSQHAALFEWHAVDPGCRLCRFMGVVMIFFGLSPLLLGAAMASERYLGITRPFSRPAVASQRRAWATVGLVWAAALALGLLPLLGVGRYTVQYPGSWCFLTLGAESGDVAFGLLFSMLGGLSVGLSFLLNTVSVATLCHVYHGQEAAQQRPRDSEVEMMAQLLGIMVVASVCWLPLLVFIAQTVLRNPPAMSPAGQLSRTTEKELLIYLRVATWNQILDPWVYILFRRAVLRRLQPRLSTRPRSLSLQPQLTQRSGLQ

Mu-type opioid receptor = Mu-type opioid receptor (Homo sapiens, UniProt P35372)
[3] = biological target: T1, Prostaglandin G/H synthase 1; type: functional; remark: listed apart in the source
Estrogen receptor = biological target: T3, Estrogen receptor (Homo sapiens, UniProt P03372)
T3 sequence (P03372 whole entry): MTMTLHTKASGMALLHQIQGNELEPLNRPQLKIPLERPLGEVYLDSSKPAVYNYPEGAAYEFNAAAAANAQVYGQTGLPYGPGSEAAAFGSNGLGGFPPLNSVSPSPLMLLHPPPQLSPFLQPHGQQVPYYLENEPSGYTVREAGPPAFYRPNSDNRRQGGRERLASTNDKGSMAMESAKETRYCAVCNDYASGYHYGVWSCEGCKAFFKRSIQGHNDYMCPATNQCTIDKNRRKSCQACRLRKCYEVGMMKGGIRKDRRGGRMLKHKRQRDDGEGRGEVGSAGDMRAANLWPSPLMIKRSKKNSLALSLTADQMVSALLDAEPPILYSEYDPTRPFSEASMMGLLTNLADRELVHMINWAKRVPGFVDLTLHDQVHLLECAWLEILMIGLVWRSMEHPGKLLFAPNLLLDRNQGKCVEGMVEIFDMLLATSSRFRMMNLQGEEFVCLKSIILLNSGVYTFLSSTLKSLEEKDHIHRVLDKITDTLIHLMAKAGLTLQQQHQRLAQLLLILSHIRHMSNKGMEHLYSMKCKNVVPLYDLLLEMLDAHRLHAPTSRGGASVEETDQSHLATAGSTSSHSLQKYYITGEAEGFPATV

Histamine H3 receptor = Histamine H3 receptor (Homo sapiens, UniProt Q9Y5N1)
[4] = biological target: Sodium-dependent noradrenaline transporter (Homo sapiens, UniProt P23975)
[5] = biological target: cGMP-inhibited 3',5'-cyclic phosphodiesterase 3A (Homo sapiens, UniProt Q14432); type: functional
[6] = biological target: T4, Alpha-2A adrenergic receptor (Homo sapiens, UniProt P08913)
T4 sequence (P08913 whole entry): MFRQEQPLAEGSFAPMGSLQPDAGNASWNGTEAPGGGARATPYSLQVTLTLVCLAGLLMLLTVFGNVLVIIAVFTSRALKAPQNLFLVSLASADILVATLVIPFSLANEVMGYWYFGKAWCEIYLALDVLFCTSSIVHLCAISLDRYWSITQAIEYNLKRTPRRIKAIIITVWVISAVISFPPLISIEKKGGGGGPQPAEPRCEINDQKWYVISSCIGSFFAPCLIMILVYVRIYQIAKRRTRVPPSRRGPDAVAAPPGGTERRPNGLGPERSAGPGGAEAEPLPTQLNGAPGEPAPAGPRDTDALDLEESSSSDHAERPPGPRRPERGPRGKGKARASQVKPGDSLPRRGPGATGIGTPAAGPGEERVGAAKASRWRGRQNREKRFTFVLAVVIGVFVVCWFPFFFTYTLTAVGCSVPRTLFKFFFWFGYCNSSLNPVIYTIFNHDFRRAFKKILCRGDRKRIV

Thromboxane A2 receptor [7] = biological target: T2, Thromboxane A2 receptor; type: functional, cell-based; remark: listed apart in the source
D(3) dopamine receptor = D(3) dopamine receptor (Homo sapiens, UniProt P35462)
D(1A) dopamine receptor = D(1A) dopamine receptor (Homo sapiens, UniProt P21728)
Adenosine receptor A3 = biological target: T5, Adenosine receptor A3 (Homo sapiens, UniProt P0DMS8)
T5 sequence (P0DMS8 whole entry): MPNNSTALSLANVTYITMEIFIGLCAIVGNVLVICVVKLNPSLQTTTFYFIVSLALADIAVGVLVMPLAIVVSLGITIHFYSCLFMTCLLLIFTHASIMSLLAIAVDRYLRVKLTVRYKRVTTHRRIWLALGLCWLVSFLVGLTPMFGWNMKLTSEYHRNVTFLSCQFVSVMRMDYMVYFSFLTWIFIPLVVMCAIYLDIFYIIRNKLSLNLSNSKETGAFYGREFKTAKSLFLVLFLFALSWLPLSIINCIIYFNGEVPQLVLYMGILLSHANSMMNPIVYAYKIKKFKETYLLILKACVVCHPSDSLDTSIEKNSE

[8] = biological target: T6, Alpha-1A adrenergic receptor (Homo sapiens, UniProt P35348); type: functional, cell-based
T6 sequence (P35348 whole entry): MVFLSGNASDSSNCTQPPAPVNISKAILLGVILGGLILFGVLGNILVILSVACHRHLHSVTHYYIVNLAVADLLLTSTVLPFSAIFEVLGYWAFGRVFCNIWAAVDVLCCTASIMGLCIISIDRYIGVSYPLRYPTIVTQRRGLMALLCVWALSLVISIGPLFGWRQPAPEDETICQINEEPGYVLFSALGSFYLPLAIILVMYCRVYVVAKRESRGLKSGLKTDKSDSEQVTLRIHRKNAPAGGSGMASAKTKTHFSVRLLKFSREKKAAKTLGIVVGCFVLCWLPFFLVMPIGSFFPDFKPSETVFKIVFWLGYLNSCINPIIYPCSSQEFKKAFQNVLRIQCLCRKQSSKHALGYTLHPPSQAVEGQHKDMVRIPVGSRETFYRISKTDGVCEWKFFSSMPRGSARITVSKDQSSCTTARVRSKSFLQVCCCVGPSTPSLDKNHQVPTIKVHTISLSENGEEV

[9] = biological target: T6, Alpha-1A adrenergic receptor; type: functional, cell-based; remark: listed apart in the source
Further: assay procedure not described here.

Sequence of D(1A) dopamine receptor (P21728 whole entry): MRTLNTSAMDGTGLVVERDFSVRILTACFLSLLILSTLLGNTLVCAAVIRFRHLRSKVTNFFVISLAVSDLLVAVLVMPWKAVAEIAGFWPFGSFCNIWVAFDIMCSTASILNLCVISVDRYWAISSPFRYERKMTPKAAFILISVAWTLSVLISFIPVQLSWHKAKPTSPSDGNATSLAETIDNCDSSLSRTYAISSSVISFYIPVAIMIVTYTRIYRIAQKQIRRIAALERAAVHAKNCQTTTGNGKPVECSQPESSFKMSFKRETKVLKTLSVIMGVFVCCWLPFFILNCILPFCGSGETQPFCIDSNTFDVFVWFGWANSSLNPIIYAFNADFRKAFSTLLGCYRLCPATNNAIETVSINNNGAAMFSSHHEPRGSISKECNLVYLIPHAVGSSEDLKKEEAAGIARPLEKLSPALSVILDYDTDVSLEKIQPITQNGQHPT
T1 sequence (P23219 whole entry): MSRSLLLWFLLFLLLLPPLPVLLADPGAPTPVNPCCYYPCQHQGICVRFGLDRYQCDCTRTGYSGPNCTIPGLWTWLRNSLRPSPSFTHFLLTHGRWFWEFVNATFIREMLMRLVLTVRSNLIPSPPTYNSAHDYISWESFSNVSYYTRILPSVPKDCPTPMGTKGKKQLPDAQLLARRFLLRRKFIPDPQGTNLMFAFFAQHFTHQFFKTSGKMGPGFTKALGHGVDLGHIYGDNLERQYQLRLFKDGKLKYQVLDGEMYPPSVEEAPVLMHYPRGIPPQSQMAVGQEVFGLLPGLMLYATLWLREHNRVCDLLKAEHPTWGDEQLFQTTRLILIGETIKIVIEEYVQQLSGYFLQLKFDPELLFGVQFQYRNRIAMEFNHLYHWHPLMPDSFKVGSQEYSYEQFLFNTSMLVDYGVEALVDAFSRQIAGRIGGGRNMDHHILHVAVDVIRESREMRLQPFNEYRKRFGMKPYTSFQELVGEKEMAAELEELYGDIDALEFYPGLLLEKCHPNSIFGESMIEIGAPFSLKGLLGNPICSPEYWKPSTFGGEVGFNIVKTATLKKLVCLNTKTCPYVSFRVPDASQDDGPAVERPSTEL
Sequence of cGMP-inhibited 3',5'-cyclic phosphodiesterase 3A (Q14432 whole entry): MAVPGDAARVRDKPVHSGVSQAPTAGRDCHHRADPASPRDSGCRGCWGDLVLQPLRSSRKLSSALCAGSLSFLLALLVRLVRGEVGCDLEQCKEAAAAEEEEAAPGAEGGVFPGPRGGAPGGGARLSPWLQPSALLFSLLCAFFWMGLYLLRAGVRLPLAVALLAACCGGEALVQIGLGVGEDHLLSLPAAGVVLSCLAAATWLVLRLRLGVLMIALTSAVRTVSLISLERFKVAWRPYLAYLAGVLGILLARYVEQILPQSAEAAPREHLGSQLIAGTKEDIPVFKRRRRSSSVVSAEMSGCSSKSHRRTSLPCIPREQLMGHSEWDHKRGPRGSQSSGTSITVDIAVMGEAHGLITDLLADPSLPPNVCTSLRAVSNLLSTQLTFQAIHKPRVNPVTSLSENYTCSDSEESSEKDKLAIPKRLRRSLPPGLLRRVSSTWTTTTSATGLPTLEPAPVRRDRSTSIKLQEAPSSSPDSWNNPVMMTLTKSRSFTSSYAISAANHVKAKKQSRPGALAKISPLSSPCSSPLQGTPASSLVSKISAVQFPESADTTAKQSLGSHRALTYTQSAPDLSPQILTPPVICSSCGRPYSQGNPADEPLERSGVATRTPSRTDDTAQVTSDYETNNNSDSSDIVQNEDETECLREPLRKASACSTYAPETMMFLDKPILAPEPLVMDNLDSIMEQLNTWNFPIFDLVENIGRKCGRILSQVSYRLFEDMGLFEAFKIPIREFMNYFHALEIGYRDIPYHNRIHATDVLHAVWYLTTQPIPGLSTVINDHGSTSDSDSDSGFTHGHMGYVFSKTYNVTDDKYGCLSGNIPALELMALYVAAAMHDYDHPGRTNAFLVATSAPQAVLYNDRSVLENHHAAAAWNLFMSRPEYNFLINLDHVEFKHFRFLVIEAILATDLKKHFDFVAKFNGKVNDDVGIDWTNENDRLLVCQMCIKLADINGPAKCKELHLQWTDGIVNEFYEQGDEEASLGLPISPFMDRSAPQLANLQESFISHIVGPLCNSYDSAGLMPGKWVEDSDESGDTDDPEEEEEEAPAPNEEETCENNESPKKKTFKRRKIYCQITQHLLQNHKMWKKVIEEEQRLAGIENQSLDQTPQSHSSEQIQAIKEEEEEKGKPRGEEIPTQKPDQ
Sequence of D(3) dopamine receptor (P35462 whole entry): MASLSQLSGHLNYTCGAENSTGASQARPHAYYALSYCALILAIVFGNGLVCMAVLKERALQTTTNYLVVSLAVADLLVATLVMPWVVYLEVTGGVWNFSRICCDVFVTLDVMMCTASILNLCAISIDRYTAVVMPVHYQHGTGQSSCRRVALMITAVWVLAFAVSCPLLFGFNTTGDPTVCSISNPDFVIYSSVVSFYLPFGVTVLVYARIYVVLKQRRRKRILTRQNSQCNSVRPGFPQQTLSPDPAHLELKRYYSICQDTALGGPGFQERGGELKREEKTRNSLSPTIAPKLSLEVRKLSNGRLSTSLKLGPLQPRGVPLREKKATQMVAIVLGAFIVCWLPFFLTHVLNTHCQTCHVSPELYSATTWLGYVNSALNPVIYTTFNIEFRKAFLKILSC
Sequence of Histamine H3 receptor (Q9Y5N1 whole entry): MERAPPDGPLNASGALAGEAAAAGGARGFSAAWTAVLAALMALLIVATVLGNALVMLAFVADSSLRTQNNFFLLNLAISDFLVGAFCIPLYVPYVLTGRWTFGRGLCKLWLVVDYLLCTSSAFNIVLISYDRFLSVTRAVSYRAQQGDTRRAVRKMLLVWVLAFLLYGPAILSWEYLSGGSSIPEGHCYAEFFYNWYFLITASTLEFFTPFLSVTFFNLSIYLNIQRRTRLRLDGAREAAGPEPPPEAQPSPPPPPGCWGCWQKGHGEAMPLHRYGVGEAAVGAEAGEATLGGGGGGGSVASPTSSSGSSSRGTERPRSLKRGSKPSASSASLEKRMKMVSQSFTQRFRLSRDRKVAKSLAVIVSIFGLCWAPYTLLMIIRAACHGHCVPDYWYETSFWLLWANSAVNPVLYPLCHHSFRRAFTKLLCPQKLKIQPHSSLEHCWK
Sequence of Mu-type opioid receptor (P35372 whole entry): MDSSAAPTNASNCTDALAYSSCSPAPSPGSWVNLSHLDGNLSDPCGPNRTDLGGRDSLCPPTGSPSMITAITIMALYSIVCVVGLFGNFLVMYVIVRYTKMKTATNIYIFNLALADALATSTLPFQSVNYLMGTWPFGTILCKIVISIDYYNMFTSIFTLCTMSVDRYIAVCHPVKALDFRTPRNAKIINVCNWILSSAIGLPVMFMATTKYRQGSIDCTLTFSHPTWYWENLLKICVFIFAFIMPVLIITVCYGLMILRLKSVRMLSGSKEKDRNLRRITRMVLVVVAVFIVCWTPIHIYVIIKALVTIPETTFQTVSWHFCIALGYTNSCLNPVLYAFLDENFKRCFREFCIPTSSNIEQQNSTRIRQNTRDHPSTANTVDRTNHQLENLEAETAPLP
Sequence of Acetylcholinesterase (P22303 whole entry): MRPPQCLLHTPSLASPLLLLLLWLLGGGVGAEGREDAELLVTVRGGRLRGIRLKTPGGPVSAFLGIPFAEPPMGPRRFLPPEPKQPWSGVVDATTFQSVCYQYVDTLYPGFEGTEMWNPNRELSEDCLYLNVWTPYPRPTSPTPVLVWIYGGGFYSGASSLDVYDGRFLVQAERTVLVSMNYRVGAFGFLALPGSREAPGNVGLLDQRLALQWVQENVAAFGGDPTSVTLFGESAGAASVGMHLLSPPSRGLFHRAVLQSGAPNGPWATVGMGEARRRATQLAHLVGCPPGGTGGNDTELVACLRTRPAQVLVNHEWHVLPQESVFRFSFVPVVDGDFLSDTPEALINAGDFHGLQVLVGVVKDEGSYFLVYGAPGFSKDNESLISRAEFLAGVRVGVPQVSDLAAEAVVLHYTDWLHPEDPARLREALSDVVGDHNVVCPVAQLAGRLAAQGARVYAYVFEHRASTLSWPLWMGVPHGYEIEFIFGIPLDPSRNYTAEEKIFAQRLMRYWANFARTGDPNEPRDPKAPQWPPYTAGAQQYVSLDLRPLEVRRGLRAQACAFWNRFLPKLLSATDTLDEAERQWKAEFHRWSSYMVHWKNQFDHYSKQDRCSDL
Sequence of Sodium-dependent noradrenaline transporter (P23975 whole entry): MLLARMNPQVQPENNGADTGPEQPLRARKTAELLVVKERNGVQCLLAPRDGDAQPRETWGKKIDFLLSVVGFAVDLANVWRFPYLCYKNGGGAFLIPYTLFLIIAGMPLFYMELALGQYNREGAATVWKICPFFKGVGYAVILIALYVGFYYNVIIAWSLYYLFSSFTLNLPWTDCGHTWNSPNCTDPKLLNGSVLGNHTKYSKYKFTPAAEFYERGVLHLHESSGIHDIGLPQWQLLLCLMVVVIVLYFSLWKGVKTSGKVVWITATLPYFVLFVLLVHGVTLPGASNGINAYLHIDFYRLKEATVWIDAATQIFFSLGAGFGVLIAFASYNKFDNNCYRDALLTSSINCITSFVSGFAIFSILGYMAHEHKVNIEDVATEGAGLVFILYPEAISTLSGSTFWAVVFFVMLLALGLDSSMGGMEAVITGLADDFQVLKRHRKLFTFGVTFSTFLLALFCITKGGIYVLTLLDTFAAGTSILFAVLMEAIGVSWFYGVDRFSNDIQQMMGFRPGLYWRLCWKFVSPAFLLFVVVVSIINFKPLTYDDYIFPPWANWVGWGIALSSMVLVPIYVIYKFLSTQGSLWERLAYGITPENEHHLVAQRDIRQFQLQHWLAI

SMILES | AC50 [1] | AC50 (Acetylcholinesterase) | AC50 (Thromboxane A2 receptor [2]) | AC50 (Mu-type opioid receptor) | AC50 [3] | AC50 (Estrogen receptor) | AC50 (Histamine H3 receptor) | AC50 [4] | AC50 [5] | AC50 [6] | AC50 (Thromboxane A2 receptor [7]) | AC50 (D(3) dopamine receptor) | AC50 (D(1A) dopamine receptor) | AC50 (Adenosine receptor A3) | AC50 [8] | AC50 [9]
CO[C@@]1(NC(=O)CSCC#N)C(=O)N2C(C(=O)O)=C(CSc3nnnn3C)CS[C@@H]21 [CEFMETAZOLE] | > 30 µM | > 30 µM | > 30 µM | > 30 µM | > 30 µM | > 30 µM | > 30 µM | > 30 µM | > 30 µM | > 30 µM | > 30 µM | > 30 µM | > 30 µM |  |  | 
O=C(O)CC(O)(CC(=O)O)C(=O)O [CITRIC ACID] | > 30 µM | > 30 µM | > 30 µM | > 30 µM | > 30 µM | > 30 µM | > 30 µM | > 30 µM | > 30 µM | > 30 µM | > 30 µM | > 30 µM | > 30 µM | > 30 µM | > 30 µM | > 30 µM
CC[C@H]1OC(=O)[C@H](C)[C@@H](O[C@H]2C[C@@](C)(OC)[C@@H](O)[C@H](C)O2)[C@H](C)[C@@H](O[C@@H]2O[C@H](C)C[C@H](N(C)C)[C@H]2O)[C@](C)(OC)C[C@@H](C)C(=O)[C@H](C)[C@@H](O)[C@]1(C)O [CLARITHROMYCIN] | > 30 µM | > 30 µM | > 30 µM | > 30 µM | > 30 µM | > 30 µM | > 30 µM | > 30 µM | > 30 µM | > 30 µM | > 30 µM | > 30 µM | > 30 µM | > 30 µM | > 30 µM | > 30 µM
C[C@H]1O[C@@H](O[C@H]2[C@@H](O)C[C@H](O[C@H]3[C@@H](O)C[C@H](O[C@H]4CC[C@@]5(C)[C@H](CC[C@@H]6[C@@H]5CC[C@]5(C)[C@@H](C7=CC(=O)OC7)CC[C@]65O)C4)O[C@@H]3C)O[C@@H]2C)C[C@H](O)[C@@H]1O [DIGITOXIN] | > 30 µM | > 30 µM | > 30 µM | > 30 µM | > 30 µM | > 30 µM | > 30 µM | > 30 µM | > 30 µM | > 30 µM | > 30 µM | > 30 µM | > 30 µM | > 30 µM | > 30 µM | > 30 µM
OC(CCCN1CCCCC1)(c1ccccc1)c1ccccc1 [DIPHENIDOL] | > 30 µM | > 30 µM | > 30 µM | 25.2 µM | > 30 µM | > 30 µM | > 30 µM | > 30 µM | > 30 µM | > 30 µM | > 30 µM | 2.15 µM | 12.5 µM | > 30 µM | > 30 µM | > 30 µM
O=C(CCCN1CC=C(n2c(=O)[nH]c3ccccc32)CC1)c1ccc(F)cc1 [DROPERIDOL] | > 30 µM | > 30 µM | > 30 µM | > 30 µM | > 30 µM | > 30 µM | > 30 µM | > 30 µM | > 30 µM | > 30 µM | > 30 µM | > 30 µM | > 30 µM | > 30 µM | > 30 µM | > 30 µM
CCn1cc(C(=O)O)c(=O)c2cc(F)c(N3CCNCC3)nc21 [ENOXACIN] | > 30 µM | > 30 µM | > 30 µM | > 30 µM | > 30 µM | > 30 µM | > 30 µM | > 30 µM | > 30 µM | > 30 µM | > 30 µM | > 30 µM | > 30 µM | > 30 µM | > 30 µM | > 30 µM
CNC(=O)Oc1ccc2c(c1)[C@]1(C)CCN(C)[C@@H]1N2C [PHYSOSTIGMINE] | 4.3 µM |  | > 30 µM | 5.74 µM | > 10 µM | > 30 µM | > 30 µM | > 30 µM | > 30 µM | > 30 µM | > 30 µM | > 30 µM | > 30 µM | > 30 µM | > 30 µM | > 30 µM
COCCCOc1ccnc(C[S+]([O-])c2nc3ccccc3[nH]2)c1C (stereo unspecified) [RABEPRAZOLE] | 25.4 µM | 16.7 µM | > 30 µM | 7.93 µM | 0.71 µM |  | > 30 µM | 17.9 µM | > 30 µM | > 30 µM | > 30 µM | > 30 µM | > 30 µM |  | > 30 µM | > 30 µM
O=C(Oc1ccccc1C(=O)O)c1ccccc1O [SALSALATE] | > 30 µM | > 30 µM | > 30 µM | > 30 µM | > 30 µM | > 30 µM | > 30 µM | > 30 µM | > 30 µM | > 30 µM | > 30 µM | > 30 µM | > 30 µM | > 30 µM | > 30 µM | > 30 µM
O=C(CCCN1CCC2(CC1)C(=O)NCN2c1ccccc1)c1ccc(F)cc1 [SPIPERONE] |  |  |  |  |  |  |  |  |  |  |  |  |  |  |  | 0.081 µM
c1ccc2[nH]c(-c3cscn3)nc2c1 [THIABENDAZOLE] | > 30 µM | > 30 µM | > 30 µM | > 30 µM | > 30 µM | > 30 µM | > 30 µM | > 30 µM | > 30 µM | > 30 µM | > 30 µM | > 30 µM | > 30 µM | 3.73 µM | > 30 µM | > 30 µM
